{
  "source": "patent US4925968A",
  "about": "“N-acyl-N-naphthoylglycines as aldose reductase inhibitors” (American Home Products Corporation, priority 1989, dated 1990)",
  "test_system": "aldose reductase",
  "test": "galactitol (dulcitol) accumulation in lens, sciatic nerve and diaphragm of galactosemic rats",
  "type": "in vivo, rat (Sprague-Dawley, male)",
  "settings": "4 days; for % Lowering dulcitol accumulation IN VIVO, D: diaphragm; for % Lowering dulcitol accumulation IN VIVO, L: lens",
  "source_text": "Such experiments are exemplified hereinbelow after the listing of the following general comments pertaining to these experiments: (a) Four or more groups of six male rats, 50-70 g, Sprague-Dawley strain, were used. The first group, the control group, was fed a mixture of laboratory chow (rodent Laboratory Chow, Purina) and glucose at 20% (w/w %) concentration. […] The test compound was either admixed to the diet or administered by gavage. In experiments involving compound administration in the diet, the average dose administered was calculated from the actual food intake of the animals in each group. The concentration of galactose in the diet of the treated groups was the same as that for the untreated galactosemic group. (b) After four days, the animals were killed by decapitation. The eyeballs were removed and punctured with a razor blade; the freed lenses were rolled gently on filter paper and weighed. The sciatic nerves were dissected as completely as possible and weighed. Both tissues when frozen can be kept up to two weeks before being analyzed for galactitol. […] Only two minor reagent changes were made: (a) The rinsing mixture was an aqueous 5% (w/v) trichloroacetic acid solution and (b) the stock solution was prepared by dissolving 25 mg of dulcitol in 100 mL of an aqueous trichloroacetic acid solution. [N.B.: For each experiment the average value found in the tissue from rats fed the glucose diet was subtracted from the individual values found in the corresponding tissue in galactose-fed rats to obtain the amount of polyol accumulated.] […] In the present case the procedure of Hayman and Kinoshita was modified in that the final chromatography step was omitted in the preparation of the enzyme from bovine lens. […] The figures under L, N, and D represent the percentage decrease of galactitol accumulation in the tissues of the lens, sciatic nerve, and diaphragm, respectively, for treated rats as compared to untreated rats.",
  "data": [
    {"smiles": "CCOC(=O)N(CC(=O)O)C(=O)c1cccc2c(C(F)(F)F)c(OC)ccc12", "note": "[Example 1, N-[[6-Methoxy-5-(trifluoromethyl)-1-naphthalenyl]carbonyl]-N-[(ethoxy)carbonyl]glycine]", "values": [
      {"measurement": "% Lowering dulcitol accumulation IN VIVO, D", "setting": "57 mg/kg", "result": 70, "unit": "%"},
      {"measurement": "% Lowering dulcitol accumulation IN VIVO, D", "setting": "97 mg/kg", "result": 83, "unit": "%"},
      {"measurement": "% Lowering dulcitol accumulation IN VIVO, L", "setting": "57 mg/kg", "result": 19, "unit": "%"},
      {"measurement": "% Lowering dulcitol accumulation IN VIVO, L", "setting": "97 mg/kg", "result": 12, "unit": "%"}
    ]},
    {"smiles": "COC(=O)N(CC(=O)O)C(=O)c1cccc2c(C(F)(F)F)c(OC)ccc12", "note": "[Example 2, N-[[6-Methoxy-5-(trifluoromethyl)-1-naphthalenyl]-carbonyl]-N-[(methoxy)carbonyl]glycine]", "values": [
      {"measurement": "% Lowering dulcitol accumulation IN VIVO, D", "setting": "48 mg/kg", "result": 54, "unit": "%"},
      {"measurement": "% Lowering dulcitol accumulation IN VIVO, L", "setting": "48 mg/kg", "result": "N.S."}
    ]},
    {"smiles": "CCCOC(=O)N(CC(=O)O)C(=O)c1cccc2c(C(F)(F)F)c(OC)ccc12", "note": "[Example 3]", "values": [
      {"measurement": "% Lowering dulcitol accumulation IN VIVO, D", "setting": "48 mg/kg", "result": "N.S."},
      {"measurement": "% Lowering dulcitol accumulation IN VIVO, L", "setting": "48 mg/kg", "result": "N.S."}
    ]},
    {"smiles": "COc1ccc2c(C(=O)N(CC(=O)O)C(=O)OC(C)C)cccc2c1C(F)(F)F", "note": "[Example 4]", "values": [
      {"measurement": "% Lowering dulcitol accumulation IN VIVO, D", "setting": "dose (mg/kg) printed as N.S.", "result": "N.S."},
      {"measurement": "% Lowering dulcitol accumulation IN VIVO, L", "setting": "dose (mg/kg) printed as N.S.", "result": "N.S."}
    ]},
    {"smiles": "COc1ccc2c(C(=O)N(CC(=O)O)C(=O)OCC(C)(C)C)cccc2c1C(F)(F)F", "note": "[Example 5]", "values": [
      {"measurement": "% Lowering dulcitol accumulation IN VIVO, D", "setting": "105 mg/kg", "result": "N.S."},
      {"measurement": "% Lowering dulcitol accumulation IN VIVO, L", "setting": "105 mg/kg", "result": "N.S."}
    ]},
    {"smiles": "COc1ccc2c(C(=O)N(CC(=O)O)C(=O)OCc3ccccc3)cccc2c1C(F)(F)F", "note": "[Example 6]", "values": [
      {"measurement": "% Lowering dulcitol accumulation IN VIVO, D", "setting": "67 mg/kg", "result": "N.S."},
      {"measurement": "% Lowering dulcitol accumulation IN VIVO, L", "setting": "67 mg/kg", "result": "N.S."}
    ]},
    {"smiles": "COc1ccc2c(C(=O)N(CC(=O)O)C(=O)OCc3ccc(Cl)c([N+](=O)[O-])c3)cccc2c1C(F)(F)F", "note": "[Example 7]", "values": [
      {"measurement": "% Lowering dulcitol accumulation IN VIVO, D", "setting": "107 mg/kg", "result": "N.S."},
      {"measurement": "% Lowering dulcitol accumulation IN VIVO, L", "setting": "107 mg/kg", "result": "N.S."}
    ]},
    {"smiles": "COc1ccc2c(C(=O)N(C=O)CC(=O)O)cccc2c1C(F)(F)F", "note": "[Example 8, N-Formyl-N-[[6-methoxy-5-(trifluoromethyl)-1-naphthalenyl]carbonyl]glycine]", "values": [
      {"measurement": "% Lowering dulcitol accumulation IN VIVO, D", "setting": "107 mg/kg", "result": 82, "unit": "%"},
      {"measurement": "% Lowering dulcitol accumulation IN VIVO, L", "setting": "107 mg/kg", "result": 13, "unit": "%"}
    ]},
    {"smiles": "COc1ccc2c(C(=O)N(CC(=O)O)C(C)=O)cccc2c1C(F)(F)F", "note": "[Example 9]", "values": [
      {"measurement": "% Lowering dulcitol accumulation IN VIVO, D", "setting": "100 mg/kg", "result": 39, "unit": "%"},
      {"measurement": "% Lowering dulcitol accumulation IN VIVO, L", "setting": "100 mg/kg", "result": "N.S."}
    ]},
    {"smiles": "COc1ccc2c(C(=O)N(CC(=O)O)C(=O)c3ccccc3)cccc2c1C(F)(F)F", "note": "[Example 10, N-Benzoyl-N-[[6-methoxy-5-(trifluoromethyl)-1-naphthalenyl]carbonyl]glycine]", "values": [
      {"measurement": "% Lowering dulcitol accumulation IN VIVO, D", "setting": "50 mg/kg", "result": "N.S."},
      {"measurement": "% Lowering dulcitol accumulation IN VIVO, L", "setting": "50 mg/kg", "result": "N.S."}
    ]},
    {"smiles": "COC(=O)N(CC(=O)O)C(=O)c1cccc2c(Br)cccc12", "note": "[Example 12]", "values": [
      {"measurement": "% Lowering dulcitol accumulation IN VIVO, D", "setting": "102 mg/kg", "result": 24, "unit": "%"},
      {"measurement": "% Lowering dulcitol accumulation IN VIVO, L", "setting": "102 mg/kg", "result": "N.S."}
    ]},
    {"smiles": "O=CN(CC(=O)O)C(=O)c1cccc2c(Br)cccc12", "note": "[Example 14]", "values": [
      {"measurement": "% Lowering dulcitol accumulation IN VIVO, D", "setting": "104 mg/kg", "result": 17, "unit": "%"},
      {"measurement": "% Lowering dulcitol accumulation IN VIVO, L", "setting": "104 mg/kg", "result": "N.S."}
    ]},
    {"smiles": "CC(=O)N(CC(=O)O)C(=O)c1cccc2c(Br)cccc12", "note": "[Example 15]", "values": [
      {"measurement": "% Lowering dulcitol accumulation IN VIVO, D", "setting": "112 mg/kg", "result": "N.S."},
      {"measurement": "% Lowering dulcitol accumulation IN VIVO, L", "setting": "112 mg/kg", "result": "N.S."}
    ]},
    {"smiles": "O=C(O)CN(C(=O)c1ccccc1)C(=O)c1cccc2c(Br)cccc12", "note": "[Example 16]", "values": [
      {"measurement": "% Lowering dulcitol accumulation IN VIVO, D", "setting": "111 mg/kg", "result": "N.S."},
      {"measurement": "% Lowering dulcitol accumulation IN VIVO, L", "setting": "111 mg/kg", "result": "N.S."}
    ]}
  ]
}
